Here are results for one molecule from paper PMC11032350, “SMS121, a new inhibitor of CD36, impairs fatty acid uptake and viability of acute myeloid leukemia” (Scientific Reports, 2024).

The target in the assay is T1, CD36 (Homo sapiens, UniProt P16671).
T1 construct: commercial biotinylated His, Avitag human CD36, captured on streptavidin CAP chip
Description: SPR (Biacore […]), steady-state […] fit. The assay is classed as binding.

T1 sequence (P16671 30-439 limits assumed): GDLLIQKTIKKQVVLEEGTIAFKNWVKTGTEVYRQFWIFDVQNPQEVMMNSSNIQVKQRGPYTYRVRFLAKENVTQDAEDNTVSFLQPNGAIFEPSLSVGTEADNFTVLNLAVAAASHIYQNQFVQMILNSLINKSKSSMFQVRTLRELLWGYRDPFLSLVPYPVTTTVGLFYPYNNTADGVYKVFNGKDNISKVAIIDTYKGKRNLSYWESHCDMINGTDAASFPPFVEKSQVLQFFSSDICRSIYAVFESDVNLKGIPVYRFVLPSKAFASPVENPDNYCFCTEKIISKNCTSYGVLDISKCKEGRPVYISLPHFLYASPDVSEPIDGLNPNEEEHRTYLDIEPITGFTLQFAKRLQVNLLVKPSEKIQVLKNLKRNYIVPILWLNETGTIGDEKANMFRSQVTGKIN

Turning to `COc1cc(/C=C/C(=O)c2ccc(N(C)C)cc2)ccc1OCC(=O)O` [SMS121, (E)-2-(4-(3-(4-(dimethylamino)phenyl)-3-oxoprop-1-en-1-yl)-2-methoxyphenoxy) acetic acid], the Kd was ~5 µM.
